These are literature values, as cited in US8137397B2, “Medical devices” (Boston Scientific Scimed, Inc., priority 2004, dated 2012).

For the data set the following is noted: at about room temperature, i.e., about 25° C.; for solubility: in water.

In the case of `OC[C@@H](O)[C@@H](O)[C@H](O)[C@H](O)CO` [Mannitol, mannitol], the solubility result was “about 0.18 gram/mL of water”.

Regarding `[Cl-].[K+]` [Potassium chloride, potassium chloride], the solubility entry was “about 0.36 gram/mL of water”.

Turning to `O=C(CO)[C@H](O)[C@@H](O)[C@H](O)CO` [Sorbose, sorbose], the “solubility in water (in words)” value is reported as “freely soluble in water”.

On to `OC[C@H]1O[C@@](CO)(O[C@H]2O[C@H](CO)[C@@H](O)[C@H](O)[C@H]2O)[C@@H](O)[C@@H]1O` [Sucrose, sucrose], for which the solubility entry was “about 2 gram/mL of water”.
